Measured values as given in patent US4923986A, “Derivatives of physiologically active substance K-252” (Kyowa Hakko Kogyo Co., Ltd., priority 1988, dated 1990).
≈ marks a conversion by molar mass, not a printed value. Where two headings read alike, the source gives them in different places.

Experiments:
[1] = tested on: HeLaS3 cells; assay: HeLaS3 cell growth inhibition test; format: cell-based; settings: Homo sapiens, read-out: cell growth inhibitory activity IC50, HeLaS3
Procedure: (§1) Compound (I) was examined for C-kinase inhibitory activity and cell growth inhibitory activity by the following method.
(§2) MCF 7 cells (4.5×10^4 cells/ml) prepared in RPMI 1640 medium containing 10% fetal calf serum, 10 μg/ml insulin and 10^-8 M estradiol are put into wells of a 96-well microtiter plate in the amount of 0.1 ml per each well. After incubation at 37° C. overnight in CO2 -incubator, 0.05 ml each of a test sample appropriately diluted with the culture medium is added to each well. In the case of contact for 72 hours, the cells are further cultured in CO2 -incubator, and then the culture supernatant is removed and the wells are washed once with PBS(-). Thereafter, 0.1 ml of fresh medium is added to each well, followed by culturing at 37° C. for 72 hours in CO2 -incubator. After the culture supernatant is removed, 0.1 ml of the culture medium containing 0.02% Neutral Red is added to each well, followed by culturing at 37° C. for one hour in CO2 -incubator, whereby the cells are stained. Then, the culture supernatant is removed and the cells are washed once with physiological saline. The pigment is extracted with 0.001N HCl/30% ethanol and absorption is measured at 550 nm with a microplate reader. By comparing the absorption of intact cells with those of the cells treated with a test compound in known concentrations, the concentration of the test compound at which growth of the cells is inhibited 50% is calculated as IC50.
(3) HeLaS3 cell growth inhibition test:
HeLaS3 cells (3×10^4 cells/ml) prepared in MEM medium containing 10% fetal calf serum and 2 mM glutamine are put into wells of a 96-well microtiter plate in the amount of 0.1 ml per each well.
Thereafter, the test is carried out in the same manner as in (1).

[2] = tested on: PC-10 cells; assay: PC-10 cell growth inhibition test; format: cell-based; settings: Homo sapiens, read-out: cell growth inhibitory activity IC50, PC-10
Procedure: as §1, §2
(2) PC-10 cell growth inhibition test:
PC-10 cells (5×10^4 cells/ml) prepared in MEM medium containing 10% fetal calf serum and 2 mM glutamine are put into wells of a 96-well microtiter plate in the amount of 0.1 ml per each well.
Thereafter, the test is carried out in the same manner as in the MCF 7 cell growth inhibition test.

[3] = molecular target: C-kinase (protein kinase C); assay: C-Kinase inhibitory activity test; format: biochemical; settings: enzyme activity inhibited 50%
[4] = tested on: COLO320DM cells; assay: COLO320DM cell growth inhibition test; format: cell-based; settings: Homo sapiens, COLO 320DM, read-out: cell growth inhibitory activity IC50, COLO320DM
Procedure: as §2, with “After” for “MCF 7 cells (4.5×10^4 cells/ml) prepared in RPMI 1640 medium containing 10% fetal calf serum, 10 μg/ml insulin and 10^-8 M estradiol are put into wells of a 96-well microtiter plate in the amount of 0.1 ml per each well. After”, “reader.” for “reader. By comparing the absorption of intact cells with those of the cells treated with a test compound in known concentrations, the concentration of the test compound at which growth of the cells is inhibited 50% is calculated as IC50.”
(4) COLO320DM cell growth inhibition test:
Thereafter, the test is carried out in the same manner as in (1) except that the cells are counted with a microcell counter.

[5] = tested on: MCF 7 cells; assay: MCF 7 cell growth inhibition test; format: cell-based; settings: Homo sapiens, read-out: cell growth inhibitory activity IC50, MCF-7
Procedure: as §1
(1) MCF 7 cell growth inhibition test:
as §2

[6] = literature, in words; cited from earlier work
[7] = literature, in words; cited from earlier work; remark: listed apart in the source
[8] = tested on: histamine release; settings: literature, in words; cited from earlier work
[9] = tested on: C-kinase; settings: literature, in words; cited from earlier work
[10] = HeLa S3, HeLaS3 cells, contact for 72 hours
[11] = PC10, PC-10 cells, contact for 72 hours
[12] = COLO320DM cells, cells counted with a microcell counter
[13] = MCF7, MCF-7 cells, contact for 72 hours

SMILES	IC50 [1, 10] [µg/mL]	IC50 [2, 11] [µg/mL]	C-Kinase inhibitory activity IC50 [3] [µg/mL]	further results
C[C@]12O[C@H](C[C@]1(O)C(=O)NO)n1c3ccccc3c3c4c(c5c6ccccc6n2c5c31)CNC4=O (relative stereo) [Compound 1]	0.59 (≈ 1.26 µM)	0.14 (≈ 0.299 µM)	0.005	–
C[C@]12O[C@H](C[C@]1(O)C(N)=O)n1c3ccccc3c3c4c(c5c6ccccc6n2c5c31)CNC4=O (relative stereo) [Compound 2]	0.22 (≈ 0.486 µM)	0.03 (≈ 0.0663 µM)	0.003	–
C[C@]12O[C@H](C[C@]1(O)C(=O)NCCO)n1c3ccccc3c3c4c(c5c6ccccc6n2c5c31)CNC4=O (relative stereo) [Compound 3]	0.95 (≈ 1.91 µM)	0.68 (≈ 1.37 µM)	0.018	–
CCOC(=O)[C@@]1(O)C[C@H]2O[C@]1(C)n1c3ccccc3c3c4c(c5c6ccccc6n2c5c31)C(=O)NC4 (relative stereo) [Compound 4]	0.6 (≈ 1.25 µM)	> 1	0.13	–
COC(=O)[C@@]1(O)C[C@H]2O[C@]1(C)n1c3ccccc3c3c4c(c5c6ccccc6n2c5c31)C(=O)N(Cl)C4 (relative stereo) [Compound 5]	0.51 (≈ 1.02 µM)	0.84 (≈ 1.67 µM)	0.034	–
COC(=O)[C@@]1(O)C[C@H]2O[C@]1(C)n1c3ccccc3c3c4c(c5c6cc(Br)ccc6n2c5c31)C(=O)NC4 (relative stereo) [Compound 7]	0.15 (≈ 0.275 µM)	0.76 (≈ 1.39 µM)	0.028	–
COC(=O)[C@@]1(O)C[C@H]2O[C@]1(C)n1c3ccccc3c3c4c(c5c6cc(O)ccc6n2c5c31)C(=O)NC4 (relative stereo) [Compound 15]	–	–	0.009	IC50 ([1]; HeLa S3, 72 h): 0.48 µg/mL (≈ 0.993 µM); IC50 ([2]; PC10, 72 h): 0.11 µg/mL (≈ 0.228 µM)
C[C@]12O[C@H](C[C@]1(O)CO)n1c3ccccc3c3c4c(c5c6ccccc6n2c5c31)CNC4=O (relative stereo) [Compound 20]	–	–	0.02	IC50 ([1]; HeLa S3, 72 h): 0.07 µg/mL (≈ 0.159 µM); IC50 ([2]; PC10, 72 h): 0.11 µg/mL (≈ 0.25 µM); IC50 [4]: 0.05 µg/mL (≈ 0.114 µM); IC50 ([5]; MCF7, 72 h): 0.55 µg/mL (≈ 1.25 µM)
C[C@]12O[C@H](C[C@]1(O)CN=[N+]=[N-])n1c3ccccc3c3c4c(c5c6ccccc6n2c5c31)CNC4=O (relative stereo) [Compound 29]	0.44 (≈ 0.947 µM)	0.71 (≈ 1.53 µM)	0.06	–
C[C@]12O[C@H](C[C@]1(O)CN)n1c3ccccc3c3c4c(c5c6ccccc6n2c5c31)CNC4=O (relative stereo) [Compound 30]	0.07 (≈ 0.16 µM)	0.04 (≈ 0.0912 µM)	0.015	–
COC(=O)[C@@]1(O)C[C@H]2O[C@]1(C)n1c3ccccc3c3c4c(c5c6ccccc6n2c5c31)C(=O)NC4 (relative stereo) [Compound K-252]	–	–	–	anti-allergic activity [6]: anti-allergic activity; antibacterial activity [7]: antibacterial substances; activity to inhibit histamine release [8]: activity to inhibit histamine release
C[C@]12O[C@H](C[C@]1(O)C(=O)O)n1c3ccccc3c3c4c(c5c6ccccc6n2c5c31)CNC4=O (relative stereo) [KT-5556]	–	–	–	antibacterial activity [7]: antibacterial substances; activity to inhibit histamine release [8]: activity to inhibit histamine release
CSCC1(O)CC2OC1(C)n1c3ccccc3c3c4c(c5c6ccccc6n2c5c31)C(=O)NC4 (centres unmarked) [Compound 45]	0.55 (≈ 1.17 µM)	> 1	0.11	–
C[S+]([O-])CC1(O)CC2OC1(C)n1c3ccccc3c3c4c(c5c6ccccc6n2c5c31)C(=O)NC4 (centres unmarked) [Compound 46]	> 1	0.27 (≈ 0.556 µM)	0.06	–
CC12OC(CC1O)n1c3ccccc3c3c4c(c5c6ccccc6n2c5c31)CNC4=O (centres unmarked) [Compound 48]	–	–	0.022	IC50 ([1]; HeLa S3, 72 h): 0.72 µg/mL (≈ 1.76 µM); IC50 ([2]; PC10, 72 h): 0.48 µg/mL (≈ 1.17 µM)
CC12OC(CC13COC(=S)O3)n1c3ccccc3c3c4c(c5c6ccccc6n2c5c31)CNC4=O (centres unmarked) [Compound 54]	0.28 (≈ 0.581 µM)	0.11 (≈ 0.228 µM)	0.015	IC50 [4, 12]: 0.08 µg/mL (≈ 0.166 µM); IC50 [5, 13]: 1 µg/mL (≈ 2.08 µM)
CC12OC(CC13COS(=O)O3)n1c3ccccc3c3c4c(c5c6ccccc6n2c5c31)CNC4=O (centres unmarked) [Compound 55]	0.14 (≈ 0.288 µM)	0.64 (≈ 1.32 µM)	0.038	–
CC12OC(CC13CNC(=O)O3)n1c3ccccc3c3c4c(c5c6ccccc6n2c5c31)CNC4=O (centres unmarked) [Compound 57]	0.04 (≈ 0.0861 µM)	0.1 (≈ 0.215 µM)	0.02	IC50 [4, 12]: 0.37 µg/mL (≈ 0.797 µM); IC50 [5, 13]: 0.15 µg/mL (≈ 0.323 µM)
CC12OC(CC13CNC(=S)O3)n1c3ccccc3c3c4c(c5c6ccccc6n2c5c31)CNC4=O (centres unmarked) [Compound 58]	0.28 (≈ 0.583 µM)	0.69 (≈ 1.44 µM)	0.017	–
NCCCCCCNS(=O)(=O)c1cccc2c(Cl)cccc12 [Compound W-7, N-(6-aminohexy)-5-chloro-1-naphthalenesulfonamide]	–	–	–	C-kinase inhibitory activity [9]: low
CN[C@@H]1C[C@H]2O[C@@](C)([C@@H]1OC)n1c3ccccc3c3c4c(c5c6ccccc6n2c5c31)C(=O)NC4 [Staurosporine]	–	–	–	antibacterial activity [7]: antibacterial activity
CN(C)CCCN1c2ccccc2Sc2ccc(Cl)cc21 [chlorpromazine]	–	–	–	C-kinase inhibitory activity [9]: low
ClCCN(Cc1ccccc1)Cc1ccccc1 [dibenamine]	–	–	–	C-kinase inhibitory activity [9]: low
CCCCNc1ccc(C(=O)OCCN(C)C)cc1 [tetracaine]	–	–	–	C-kinase inhibitory activity [9]: low
CN1CCN(CCCN2c3ccccc3Sc3ccc(C(F)(F)F)cc32)CC1 [trifluoperazine]	–	–	–	C-kinase inhibitory activity [9]: low
